Reference: US12122780B2, “Pyrimidinyl group-containing tricyclic compound serving as c-Met inhibitor” (JIANGSU AOSAIKANG PHARMACEUTICAL CO., LTD., priority 2019, dated 2024)
Where a name gives a salt, the structure may show the parent alone.

Legend:
[1] = system: EBC-1 cells; assay: EBC-1 cell proliferation experiment (CellTiter-Glo); type: cell-based, human; conditions: 3 days
Procedure: MEM medium, fetal bovine serum, penicillin/streptomycin antibiotics were purchased from Wisent. EBC-1 cell line was purchased from Nanjing COBIO Bioscience Co., LTD. Envision multi-label analyzer (PerkinElmer).
EBC-1 cells were seeded in a white 96-well plate, […] cell suspension per well, which contained 3000 EBC-1 cells. The cell plate was placed in a carbon dioxide incubator for overnight culture.
The compound to be tested was diluted 5-fold to the eighth concentration with a discharge gun, i.e., from 2 mM to […], and double duplicate wells experiment was set. 78 μL of the medium was added to the middle plate, then 2 μL per well of gradient diluted compound was transferred to the corresponding position on the middle plate, then mixed well and 20 μL per well was transferred to the cell plate. The cell plate was cultured in a carbon dioxide incubator for 3 days. Another cell plate was prepared and the signal values were read on the day of dosing as […] to be used in the data analysis. 25 μL of Promega CellTiter-Glo was added to each well of this cell plate, and incubated at room temperature for 10 minutes to stabilize the luminescence signal. Readings were taken using a PerkinElmer Envision multi-label analyzer.
25 μL of Promega CellTiter-Glo reagent was added to each well of this cell plate, and incubated at room temperature for 10 minutes to stabilize the luminescence signal. Readings were taken using a PerkinElmer Envision multi-label analyzer.
Using the equation (Sample-Min)/(Max-Min)*100% to convert the original data to the inhibition rate, the IC50 value can be obtained by curve fitting with four parameters (obtained by “log(inhibitor) vs. response in GraphPad Prism—Variable slope mode).

[2] = target: c-Met enzyme (Homo sapiens (Human), UniProt P08581); assay: c-Met enzyme activity inhibition (Promega c-Met Kinase Enzyme System, ADP-Glo); type: biochemical; conditions: 10 μM ATP, 60 min, 30° C.
Sequence of c-Met enzyme (P08581 956-1390): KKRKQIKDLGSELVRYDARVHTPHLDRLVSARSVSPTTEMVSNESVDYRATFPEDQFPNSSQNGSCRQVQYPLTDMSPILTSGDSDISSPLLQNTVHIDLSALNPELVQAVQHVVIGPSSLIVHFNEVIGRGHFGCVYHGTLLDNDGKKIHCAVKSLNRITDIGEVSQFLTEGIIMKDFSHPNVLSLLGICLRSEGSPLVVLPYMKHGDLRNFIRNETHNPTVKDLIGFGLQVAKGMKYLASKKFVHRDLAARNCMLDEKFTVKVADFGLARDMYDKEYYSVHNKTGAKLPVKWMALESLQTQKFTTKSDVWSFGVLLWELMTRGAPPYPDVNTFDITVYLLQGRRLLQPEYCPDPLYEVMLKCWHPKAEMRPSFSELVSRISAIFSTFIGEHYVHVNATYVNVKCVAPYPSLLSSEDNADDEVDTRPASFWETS
Procedure: To detect the inhibitory effect of the compounds on c-Met enzyme activity.
The c-Met Kinase Enzyme System was purchased from Promega. Envision multi-label analyzer (PerkinElmer).
The kinase buffer in the kit was used to dilute the enzyme, substrate, ATP and inhibitor.
The compound to be tested was diluted 5-fold to the eighth concentration with a discharge gun, i.e., from 50 μM to […], with a final DMSO concentration of 5%, and double duplicate wells experiment was set. 1 μL of each concentration gradient of the inhibitor, 2 μL of c-Met enzyme (4 ng), 2 μL of a mixture of the substrate and ATP (10 μM ATP, 0.2 μg/μL poly E4Y1) were added to the microplate, and the final concentration gradient of the compound of 10 μM was diluted to 0.13 nM. The reaction system was placed at 30° C. and the reaction was carried out for 60 minutes. When the reaction was completed, 5 μL of ADP-Glo reagent was added to each well and the reaction was carried out at 30° C. for another 40 minutes, when the reaction was completed, 10 μL of kinase detection reagent was added to each well, then the reaction was carried out at 30° C. for still another 30 minutes, chemiluminescence was read by the PerkinElmer Envision multi-label analyzer with an integration time of 0.5 seconds.
Using the equation (Sample-Min)/(Max-Min)*100% to convert the original data to the inhibition rate, the IC50 value can be obtained by curve fitting with four parameters (obtained by log(inhibitor) vs. response in GraphPad Prism—Variable slope mode).

[3] = system: human lung cancer EBC-1 xenograft tumor; assay: In vivo drug efficacy, human lung cancer EBC-1 xenograft tumor in nude mice; set-up: species or system BALB/c nude mice; conditions: for Tumor volume: n = 6
Procedure: BALB/c nude mice, female, 6-8 weeks old, weighing about 18-20 grams, animals were raised in SPF-class animal rooms in IVC (independent air supply system, constant temperature and humidity) cages (3 per cage). All cages, bedding and water were disinfected before use. All animals had free access to standard certified commercial laboratory diets. A total of 36 mice purchased from Shanghai Lingchang Biotechnology Co., Ltd. were used for research. Each animal was inoculated with 0.1 mL (5×10^6 cells) of EBC-1 cells on the right back, when the average tumor volume reached 243 mm^3, the animals were randomly grouped and the administration was started. The test compound was orally administered daily, the dose of hydrochloride of compound 24 was 10 mg/kg, the two doses of hydrochloride of compound 25 were 10 mg/kg and 20 mg/kg, respectively, and the dose of hydrochloride of compound 29 was 10 mg/kg. The tumor diameter was measured with vernier calipers twice a week. The calculation formula of tumor volume was: V=0.5a×b^2, a and b represented the long diameter and short diameter of the tumor, respectively. The anti-tumor efficacy of the compound was evaluated by TGI (%) or the relative tumor proliferation rate T/C (%). Relative tumor proliferation rate T/C (%)=TRTV/CRTV×100% (TRTV: average RTV in the treatment group; CRTV: average RTV in the negative control group). The relative tumor volume (RTV) was calculated according to the results of tumor measurement, the calculation formula was RTV=Vt/V0, wherein V0 was the tumor volume measured at the time of the grouping administration (i.e. D0), Vt was the tumor volume at a certain measurement, and TRTV and CRTV were taken on the same day. TGI (%) reflected the tumor growth inhibition rate. TGI (%)=[(1−(average tumor volume of a certain treatment group after administration-average tumor volume of the treatment group at the beginning of administration))/(average tumor volume of the solvent control group after the administration-average tumor volume of the solvent control group at the beginning of the administration)]×100%. Statistical analysis was performed based on RTV data at the end of the experiment, and SPSS software was used for analysis.

| SMILES | IC50 ([1]; Homo sapiens, EBC-1, 72 h) [nM] | IC50 [2] [nM] | further results |
| --- | --- | --- | --- |
| CN(C)CCN1CCC(COc2cnc(-c3cccc(Cn4c(=O)ccn5c6cc(C#N)ccc6nc45)c3)nc2)CC1 [Compound 31] | 493 |  |  |
| CN1CCC(COc2cnc(-c3cccc(Cn4c5c(ccc4=O)-c4cc(C#N)ccc4C5(F)F)c3)nc2)CC1 [Formate of compound 1] | 133 | 42 |  |
| CN1CCC(COc2cnc(-c3cccc(Cn4c5c(ccc4=O)-c4cc(C#N)ccc4C5=O)c3)nc2)CC1 [Formate of compound 2] | 5.79 | 10 |  |
| CN1CCC(COc2cnc(-c3cccc(Cn4c5c(ccc4=O)-c4cc(F)ccc4C5=O)c3)nc2)CC1 [Formate of compound 3] | 32.8 | 16 |  |
| CN1CCC(COc2cnc(-c3cccc(Cn4c5c(ccc4=O)-c4cc(F)ccc4C5(F)F)c3)nc2)CC1 [Formate of compound 4] |  | 167 |  |
| CN1CCC(COc2cnc(-c3cccc(Cn4c5c(ccc4=O)-c4cc(C#N)ccc4OC5)c3)nc2)CC1 [Formate of compound 5] | 585 | 131 |  |
| CN1CCC(COc2cnc(-c3cccc(Cn4c(=O)ccc5c6cc(C#N)ccc6sc54)c3)nc2)CC1 [Hydrochloride of compound 6] | 62.8 | 24.9 |  |
| CN1CCC(COc2cnc(-c3cccc(Cn4c(=O)c(F)cc5c6cc(C#N)ccc6sc54)c3)nc2)CC1 [Hydrochloride of compound 8] | 36 | 21.5 |  |
| CN1CCC(COc2cnc(-c3cccc(Cn4c(=O)ccn5c6ccc(C#N)cc6nc45)c3)nc2)CC1 [Hydrochloride of compound 9] | 31.8 | 21.8 |  |
| CN1CCC(COc2cnc(-c3cccc(Cn4c(=O)ccn5c6cc(C#N)ccc6cc45)c3)nc2)CC1 [Hydrochloride of compound 10] | 31.6 | 15.7 |  |
| CN1CCC(COc2cnc(-c3cccc(Cn4c(=O)ccn5c6cc(C#N)ccc6nc45)c3)nc2)CC1 [Hydrochloride of compound 11] | 6.99 | 3.26 |  |
| CCN1CCC(COc2cnc(-c3cccc(Cn4c5c(ccc4=O)-c4cc(C#N)ccc4C5=O)c3)nc2)CC1 [Hydrochloride of compound 12] | 6.66 | 5.06 |  |
| CCN1CCC(COc2cnc(-c3cccc(Cn4c(=O)c(F)cn5c6cc(C#N)ccc6nc45)c3)nc2)CC1 [Hydrochloride of compound 13] | 133 | 42 |  |
| CN1CCC(COc2cnc(-c3cccc(Cn4c5c(cc(F)c4=O)-c4cc(C#N)ccc4C5(F)F)c3)nc2)CC1 [Hydrochloride of compound 16] | 135 | 45 |  |
| CC(C)N1CCC(COc2cnc(-c3cccc(Cn4c5c(ccc4=O)-c4cc(C#N)ccc4C5=O)c3)nc2)CC1 [Hydrochloride of compound 19] | 14.1 | 13.4 |  |
| CN1CCN(C(=O)Oc2cnc(-c3cccc(Cn4c5c(ccc4=O)-c4cc(C#N)ccc4C5=O)c3)nc2)CC1 [Hydrochloride of compound 20] |  | 26 |  |
| CN1CCC(COc2cnc(-c3cccc(Cn4c(=O)ccc5c4nc4ccc(C#N)cn45)c3)nc2)CC1 [Hydrochloride of compound 23] | 16.8 | 6.46 |  |
| CCN1CCC(COc2cnc(-c3cccc(Cn4c(=O)ccn5c6cc(C#N)ccc6nc45)c3)nc2)CC1 [Hydrochloride of compound 24] | 4.26 | 2.03 | Tumor volume ([3]; 10 mg/kg oral daily (stopped after 15 days), day 18, mean ± standard error): 123 ± 31 mm^3; Tumor volume ([3]; 10 mg/kg oral daily (stopped after 15 days), day 21, mean ± standard error): 164 ± 45 mm^3; Tumor volume ([3]; 10 mg/kg oral daily (stopped after 15 days), day 25, mean ± standard error): 257 ± 72 mm^3; Tumor volume ([3]; 10 mg/kg oral daily (stopped after 15 days), day 25, mean ± standard error, listed as hydrochloride of compound 24): 257 mm^3; Tumor volume ([3]; 10 mg/kg oral daily (stopped after 15 days), day 27, mean ± standard error): 366 ± 92 mm^3; TGI (tumor growth inhibition rate) ([3]; 10 mg/kg oral daily, 25th day): 99.3%; TRTV/CRTV (relative tumor proliferation rate T/C) ([3]; 10 mg/kg oral daily, 25th day): 13.7%; Tumor volume ([3]; 10 mg/kg oral daily, day 0, mean ± standard error): 244 ± 23 mm^3; Tumor volume ([3]; 10 mg/kg oral daily, day 4, mean ± standard error): 270 ± 22 mm^3; Tumor volume ([3]; 10 mg/kg oral daily, day 7, mean ± standard error): 224 ± 16 mm^3; Tumor volume ([3]; 10 mg/kg oral daily, day 11, mean ± standard error): 142 ± 24 mm^3; Tumor volume ([3]; 10 mg/kg oral daily, day 14, mean ± standard error): 120 ± 25 mm^3 |
| N#Cc1ccc2nc3n(Cc4cccc(-c5ncc(OCC6CCN(C7COC7)CC6)cn5)c4)c(=O)ccn3c2c1 [Hydrochloride of compound 26] | 16.2 | 3.12 |  |
| CN1CCC(COc2cnc(-c3cccc(Cn4c(=O)ccc5c4nn4ccc(C#N)cc54)c3)nc2)CC1 [Hydrochloride of compound 27] | 38 | 17.7 |  |
| CN1CC2(CC(Oc3cnc(-c4cccc(Cn5c(=O)ccn6c7cc(C#N)ccc7nc56)c4)nc3)C2)C1 [Hydrochloride of compound 28] | 66 | 58 |  |
| CN1CCC(COc2cnc(-c3cccc(Cn4c(=O)ccn5c6cc(C#N)cnc6nc45)c3)nc2)CC1 [Hydrochloride of compound 32] | 816 |  |  |
| CC(C)N1CCC(COc2cnc(-c3cccc(Cn4c(=O)ccn5c6cc(C#N)cnc6nc45)c3)nc2)CC1 [Hydrochloride of compound 33] | 899 |  |  |
| COCCN1CCC(COc2cnc(-c3cccc(Cn4c(=O)ccn5c6cc(C#N)ccc6nc45)c3)nc2)CC1 [Hydrochloride of compound 35] | 5.8 | 11.6 |  |
| CS(=O)(=O)CCN1CCC(COc2cnc(-c3cccc(Cn4c(=O)ccn5c6cc(C#N)ccc6nc45)c3)nc2)CC1 [Hydrochloride of compound 42] |  | 15.2 |  |
| CCCN1CCC(COc2cnc(-c3cccc(Cn4c(=O)ccn5c6cc(C#N)ccc6nc45)c3)nc2)CC1 [Hydrochloride of compound 43] | 7.32 |  |  |
| N#Cc1ccc2nc3n(Cc4cccc(-c5ncc(OCC6CCN(C7CCC7)CC6)cn5)c4)c(=O)ccn3c2c1 [Hydrochloride of compound 44] |  |  | IC50 [1]: 6.83 nM |
| N#Cc1ccc2nc3n(Cc4cccc(-c5ncc(OCC6CCN(C7CCC7)CC6)cn5)c4)c(=O)ccn3c2c1 [Hydrochloride of compound 45] |  |  | IC50 [1]: 19.3 nM |
| CC(C)N1CC(COc2cnc(-c3cccc(Cn4c(=O)ccn5c6cc(C#N)ccc6nc45)c3)nc2)C1 [Hydrochloride of compound 46] | 12.2 |  |  |
